Data as given in PMC10382584, “Macrocyclization of linear molecules by deep learning to facilitate macrocyclic drug candidates discovery” (Nature Communications, 2023).

Columns and labels:
Experiment in all cases: biochemical
Design in all cases: DiscoveRx KINOMEscan competition binding, percent of DMSO control signal at 100 nM
Settings in all cases: read-out: Fig. 4a / Percent Control / Compound 1; percent of DMSO control, competition binding
[1] = target: T1, ABL1(M351T)-phosphorylated (Homo sapiens, UniProt P00519, M351T)
T1 construct: phosphorylated

[2] = target: BMX (Homo sapiens, UniProt P51813)
[3] = target: CASK (Homo sapiens, UniProt O14936)
[4] = target: CSNK1A1 (Homo sapiens, UniProt P48729)
[5] = target: CSNK1G1 (Homo sapiens, UniProt Q9HCP0)
[6] = target: DDR1 (Homo sapiens, UniProt Q08345)
[7] = target: EGFR(E746-A750del) (Homo sapiens, UniProt P00533, DEL746-750)
[8] = target: EPHA1 (Homo sapiens, UniProt P21709)
[9] = target: ERBB2 (Homo sapiens, UniProt P04626)
[10] = target: FRK (Homo sapiens, UniProt P42685)
[11] = target: GRK2 (Homo sapiens, UniProt P25098)
[12] = target: HASPIN (Homo sapiens, UniProt Q8TF76)
[13] = target: HIPK4 (Homo sapiens, UniProt Q8NE63)
[14] = target: MAP3K1 (Homo sapiens, UniProt Q13233)
[15] = target: MARK2 (Homo sapiens, UniProt Q7KZI7)
[16] = target: MARK4 (Homo sapiens, UniProt Q96L34)
[17] = target: T2, MINK (Homo sapiens, UniProt Q8N4C8)
T2 construct: gene MINK1

[18] = target: T3, PIK4CB (Homo sapiens, UniProt Q9UBF8)
T3 construct: gene PI4KB

[19] = target: T4, RIPK5 (Homo sapiens, UniProt Q6XUX3)
T4 construct: gene DSTYK

[20] = target: T5, RPS6KA5(Kin.Dom.2-C-terminal) (Homo sapiens, UniProt O75582)
T5 construct: Kin.Dom.2-C-terminal

[21] = target: SRPK3 (Homo sapiens, UniProt Q9UPE1)
[22] = target: TLK1 (Homo sapiens, UniProt Q9UKI8)
[23] = target: TNK2 (Homo sapiens, UniProt Q07912)
[24] = target: TNNI3K (Homo sapiens, UniProt Q59H18)
[25] = target: T6, p38-alpha (Homo sapiens, UniProt Q16539)
T6 construct: gene MAPK14
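Also: KINOMEscan kinase panel binding assay, signal normalized between DMSO as 100% and a positive control compound as 0%.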

GRK2, sequence (P25098 whole entry): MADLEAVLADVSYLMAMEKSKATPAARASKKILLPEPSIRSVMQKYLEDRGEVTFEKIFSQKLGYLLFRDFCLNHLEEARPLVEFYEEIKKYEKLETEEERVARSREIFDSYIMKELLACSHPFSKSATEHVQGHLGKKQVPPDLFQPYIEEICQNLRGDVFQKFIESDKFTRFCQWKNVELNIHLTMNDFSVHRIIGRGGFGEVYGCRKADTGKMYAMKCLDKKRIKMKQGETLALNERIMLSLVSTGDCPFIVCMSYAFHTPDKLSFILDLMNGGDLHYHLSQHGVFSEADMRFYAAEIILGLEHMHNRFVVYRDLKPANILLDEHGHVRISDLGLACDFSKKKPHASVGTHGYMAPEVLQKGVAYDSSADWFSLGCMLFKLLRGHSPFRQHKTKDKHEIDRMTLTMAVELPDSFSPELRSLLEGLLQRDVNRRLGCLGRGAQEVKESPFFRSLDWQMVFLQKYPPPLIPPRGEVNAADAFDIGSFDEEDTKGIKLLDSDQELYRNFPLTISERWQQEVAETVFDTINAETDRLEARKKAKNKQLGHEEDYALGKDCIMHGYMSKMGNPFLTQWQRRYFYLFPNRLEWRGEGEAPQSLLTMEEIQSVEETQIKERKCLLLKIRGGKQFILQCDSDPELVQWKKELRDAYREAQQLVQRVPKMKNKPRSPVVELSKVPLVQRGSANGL
TNK2, sequence (Q07912 whole entry): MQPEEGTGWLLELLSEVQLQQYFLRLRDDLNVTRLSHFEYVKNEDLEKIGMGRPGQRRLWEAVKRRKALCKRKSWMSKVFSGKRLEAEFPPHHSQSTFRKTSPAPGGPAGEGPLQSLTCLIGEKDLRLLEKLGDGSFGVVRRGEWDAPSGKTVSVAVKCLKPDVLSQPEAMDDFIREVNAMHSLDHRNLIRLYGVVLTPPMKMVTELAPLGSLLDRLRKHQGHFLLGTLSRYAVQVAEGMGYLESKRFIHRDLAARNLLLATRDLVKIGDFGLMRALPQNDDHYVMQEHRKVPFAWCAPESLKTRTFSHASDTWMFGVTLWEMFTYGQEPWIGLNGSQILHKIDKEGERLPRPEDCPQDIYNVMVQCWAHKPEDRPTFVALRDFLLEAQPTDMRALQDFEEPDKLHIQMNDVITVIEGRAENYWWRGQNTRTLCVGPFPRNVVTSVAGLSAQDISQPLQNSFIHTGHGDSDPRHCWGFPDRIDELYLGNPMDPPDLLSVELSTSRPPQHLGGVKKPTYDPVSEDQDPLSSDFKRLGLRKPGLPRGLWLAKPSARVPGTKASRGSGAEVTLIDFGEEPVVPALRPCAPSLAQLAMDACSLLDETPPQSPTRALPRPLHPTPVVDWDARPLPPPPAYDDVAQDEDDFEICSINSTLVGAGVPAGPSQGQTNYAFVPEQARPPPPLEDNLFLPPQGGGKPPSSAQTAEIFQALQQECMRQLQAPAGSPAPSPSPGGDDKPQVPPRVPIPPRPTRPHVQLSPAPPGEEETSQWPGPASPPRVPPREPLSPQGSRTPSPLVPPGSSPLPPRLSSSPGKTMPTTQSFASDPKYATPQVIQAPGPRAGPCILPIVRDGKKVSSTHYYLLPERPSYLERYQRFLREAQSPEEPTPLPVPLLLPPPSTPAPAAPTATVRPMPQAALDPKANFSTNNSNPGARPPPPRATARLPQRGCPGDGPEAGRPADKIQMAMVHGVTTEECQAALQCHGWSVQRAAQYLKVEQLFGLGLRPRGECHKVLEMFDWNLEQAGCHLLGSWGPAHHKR
CSNK1G1, sequence (Q9HCP0 whole entry): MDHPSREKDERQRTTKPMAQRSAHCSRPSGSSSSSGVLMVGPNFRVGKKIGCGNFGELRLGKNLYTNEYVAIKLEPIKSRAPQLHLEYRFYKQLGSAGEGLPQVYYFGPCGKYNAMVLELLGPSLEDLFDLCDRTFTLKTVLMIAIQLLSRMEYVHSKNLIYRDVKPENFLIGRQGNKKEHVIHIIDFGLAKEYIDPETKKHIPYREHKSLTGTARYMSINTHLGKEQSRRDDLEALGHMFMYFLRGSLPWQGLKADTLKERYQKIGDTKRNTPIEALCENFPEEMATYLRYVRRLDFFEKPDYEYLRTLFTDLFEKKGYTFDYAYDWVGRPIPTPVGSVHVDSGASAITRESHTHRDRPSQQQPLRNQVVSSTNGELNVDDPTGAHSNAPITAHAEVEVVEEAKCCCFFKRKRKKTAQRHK
EGFR(E746-A750del), sequence (P00533 with tags, fused parts or gaps DEL746-750): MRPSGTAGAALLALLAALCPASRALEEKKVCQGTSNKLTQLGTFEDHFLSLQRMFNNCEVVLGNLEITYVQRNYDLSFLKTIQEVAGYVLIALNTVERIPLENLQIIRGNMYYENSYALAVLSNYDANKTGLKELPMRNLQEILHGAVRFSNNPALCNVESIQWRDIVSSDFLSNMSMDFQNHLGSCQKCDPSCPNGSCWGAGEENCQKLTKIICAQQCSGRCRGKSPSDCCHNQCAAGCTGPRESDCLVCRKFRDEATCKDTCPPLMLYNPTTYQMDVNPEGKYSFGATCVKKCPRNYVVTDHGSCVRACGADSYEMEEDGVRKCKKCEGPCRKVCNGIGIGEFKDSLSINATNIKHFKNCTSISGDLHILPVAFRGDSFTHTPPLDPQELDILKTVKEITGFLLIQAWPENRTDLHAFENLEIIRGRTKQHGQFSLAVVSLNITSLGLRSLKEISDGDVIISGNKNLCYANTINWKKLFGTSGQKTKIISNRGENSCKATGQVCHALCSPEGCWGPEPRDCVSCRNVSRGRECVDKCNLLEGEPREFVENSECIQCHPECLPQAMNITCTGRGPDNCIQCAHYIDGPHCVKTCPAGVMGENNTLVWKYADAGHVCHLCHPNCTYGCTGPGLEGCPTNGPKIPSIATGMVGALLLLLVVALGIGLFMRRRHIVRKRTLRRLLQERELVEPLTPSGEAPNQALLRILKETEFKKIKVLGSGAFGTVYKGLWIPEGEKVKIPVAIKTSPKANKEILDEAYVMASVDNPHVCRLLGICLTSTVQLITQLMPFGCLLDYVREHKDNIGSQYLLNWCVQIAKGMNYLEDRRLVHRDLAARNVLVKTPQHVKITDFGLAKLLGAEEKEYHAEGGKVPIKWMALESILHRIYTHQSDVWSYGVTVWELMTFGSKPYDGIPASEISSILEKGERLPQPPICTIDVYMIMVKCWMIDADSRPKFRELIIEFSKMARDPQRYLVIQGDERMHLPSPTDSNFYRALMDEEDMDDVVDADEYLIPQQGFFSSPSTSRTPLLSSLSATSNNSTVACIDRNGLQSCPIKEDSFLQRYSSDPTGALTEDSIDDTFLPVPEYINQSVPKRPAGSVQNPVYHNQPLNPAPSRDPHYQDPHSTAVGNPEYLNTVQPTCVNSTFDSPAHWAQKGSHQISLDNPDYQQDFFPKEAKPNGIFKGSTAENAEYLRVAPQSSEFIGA
SRPK3, sequence (Q9UPE1 whole entry): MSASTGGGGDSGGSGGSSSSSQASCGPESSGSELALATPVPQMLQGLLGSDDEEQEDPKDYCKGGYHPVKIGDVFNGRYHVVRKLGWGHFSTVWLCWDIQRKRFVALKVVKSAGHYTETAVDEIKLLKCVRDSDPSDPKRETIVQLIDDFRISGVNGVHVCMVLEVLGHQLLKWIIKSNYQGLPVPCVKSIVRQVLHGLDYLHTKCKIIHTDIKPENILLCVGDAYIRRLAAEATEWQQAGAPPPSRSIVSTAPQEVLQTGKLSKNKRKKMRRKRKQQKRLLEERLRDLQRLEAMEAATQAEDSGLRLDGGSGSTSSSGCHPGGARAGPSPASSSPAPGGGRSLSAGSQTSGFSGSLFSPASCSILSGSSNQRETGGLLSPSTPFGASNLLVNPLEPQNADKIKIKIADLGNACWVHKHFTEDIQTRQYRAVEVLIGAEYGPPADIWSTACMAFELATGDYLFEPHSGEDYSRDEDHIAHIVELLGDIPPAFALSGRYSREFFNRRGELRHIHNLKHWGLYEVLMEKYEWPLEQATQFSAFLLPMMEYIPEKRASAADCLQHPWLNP
TLK1, sequence (Q9UKI8 whole entry): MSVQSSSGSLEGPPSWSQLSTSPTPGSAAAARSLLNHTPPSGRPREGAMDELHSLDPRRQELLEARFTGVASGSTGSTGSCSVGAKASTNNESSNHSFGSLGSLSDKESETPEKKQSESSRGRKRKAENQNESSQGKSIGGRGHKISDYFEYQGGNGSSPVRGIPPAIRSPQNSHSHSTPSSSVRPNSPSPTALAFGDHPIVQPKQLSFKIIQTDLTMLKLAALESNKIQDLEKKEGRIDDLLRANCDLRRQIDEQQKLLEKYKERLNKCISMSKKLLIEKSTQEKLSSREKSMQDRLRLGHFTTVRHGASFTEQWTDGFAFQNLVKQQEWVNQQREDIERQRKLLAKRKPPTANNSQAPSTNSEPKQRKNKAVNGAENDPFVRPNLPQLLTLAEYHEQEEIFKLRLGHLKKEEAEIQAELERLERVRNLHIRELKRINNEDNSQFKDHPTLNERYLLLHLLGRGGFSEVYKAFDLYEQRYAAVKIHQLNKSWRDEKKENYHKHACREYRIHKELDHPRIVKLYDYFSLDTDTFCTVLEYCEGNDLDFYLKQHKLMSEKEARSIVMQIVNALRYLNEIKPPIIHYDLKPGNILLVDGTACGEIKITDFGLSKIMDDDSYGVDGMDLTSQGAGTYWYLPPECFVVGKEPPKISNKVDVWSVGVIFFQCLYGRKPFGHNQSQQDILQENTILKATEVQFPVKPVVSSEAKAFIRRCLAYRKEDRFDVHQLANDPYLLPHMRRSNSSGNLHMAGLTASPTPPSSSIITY
CSNK1A1, sequence (P48729 whole entry): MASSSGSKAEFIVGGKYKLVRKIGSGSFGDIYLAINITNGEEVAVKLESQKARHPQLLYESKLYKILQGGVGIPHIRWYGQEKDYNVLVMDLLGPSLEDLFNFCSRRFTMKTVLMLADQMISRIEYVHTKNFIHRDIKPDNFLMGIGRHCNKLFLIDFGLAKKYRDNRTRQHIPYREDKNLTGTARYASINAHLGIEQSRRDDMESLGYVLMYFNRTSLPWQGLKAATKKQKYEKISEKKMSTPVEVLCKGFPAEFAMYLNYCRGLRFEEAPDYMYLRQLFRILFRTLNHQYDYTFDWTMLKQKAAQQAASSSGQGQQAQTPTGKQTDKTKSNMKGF

In the case of `Cc1cnc2nc1Nc1cccc(c1)COCc1cc(ccc1OCCN1CCCC1)N2` [Compound 1], the remaining binding at 0.1 µM [1] is reported as 63%, the remaining binding at 0.1 µM [2] is reported as 93% and the remaining binding at 0.1 µM [3] is reported as 73%. For the same compound, the remaining binding at 0.1 µM [4] was 95%, the remaining binding at 0.1 µM [5] was 91% and the remaining binding at 0.1 µM [6] was 93%. It also gave a remaining binding at 0.1 µM [7] of 89%, a remaining binding at 0.1 µM [8] of 91% and a remaining binding at 0.1 µM [9] of 96%. The remaining binding at 0.1 µM [10] was 84%, the remaining binding at 0.1 µM [11] was 90% and the remaining binding at 0.1 µM [12] was 79%. The remaining binding at 0.1 µM [13] was 79%, the remaining binding at 0.1 µM [14] was 79% and the remaining binding at 0.1 µM [15] was 89%. For the same compound, the remaining binding at 0.1 µM [16] was 77%, the remaining binding at 0.1 µM [17] was 82% and the remaining binding at 0.1 µM [18] was 79%. The remaining binding at 0.1 µM [19] was 93%, the remaining binding at 0.1 µM [20] was 100% and the remaining binding at 0.1 µM [21] was 82%. For the same compound, the remaining binding at 0.1 µM [22] was 100%, the remaining binding at 0.1 µM [23] was 86% and the remaining binding at 0.1 µM [24] was 100%. For the same compound, the remaining binding at 0.1 µM [25] was 100%.
